Experimental findings from BindingDB's records for doi:10.1016/j.bmc.2015.09.025 (Sookmyung Women'S University, 2015) are described below.

SMILES strings stand for the structures. Bounds are passed on as bounds.

Usually IC50 stands for the concentration that inhibits the measured activity by half.

This assay can be described thus: Antiosteoclast activity in mouse BMM cells assessed as reduction of RANKL-induced osteoclasts differentiation by measuring TRAP positive multinucleated cells after 4 days by light microscopy.
For `COc1ccc(Nc2nc3cc(NC(=O)CCCCOc4ccc(/C(N)=N/O)cc4)ccc3o2)cc1`, the half-inhibitory concentration (IC50) was 580 nM. As for `N/C(=N\O)c1ccc(OCCCCC(=O)Nc2ccc3oc(Nc4ccccc4)nc3c2)cc1`, the IC50 worked out at 560 nM. Turning to `CC(c1cc2ccccc2s1)N(O)C(N)=O` (racemic) [Leutrol], the IC50 was more than 20000 nM. For the compound `CCc1ccc(Nc2nc3cc(NC(=O)CCCCOc4ccc(/C(N)=N/O)cc4)ccc3o2)cc1`, the IC50 was determined as 1310 nM.
